Publication PMC5797931 (Frontiers in Pharmacology, 2018)

How the values were obtained:
[1] = human, in vivo; cited from earlier work
in vivo = assay: in vivo; parameters: species or system piglets (Landrace × large white); conditions: male, Landrace × large white (Seghers Hybrid), pig, 120 ug
Procedure: The current study was approved by the ethical committee of the Faculties of Veterinary Medicine and Bioscience Engineering of Ghent University (EC2014/184). Care and use of animals was in full compliance with the national (Belgian Royal Decree, [2013]) and European legislation (Anonymous, [2010]). […] Opti®, 6 months: […], Leuven, Belgium) and drinking water. Natural light was provided by translucent windows and the stable temperature was 23.2 ± 0.56°C. Higher temperatures were obtained in the rescue decks through heating lamps. In all age groups, a double lumen catheter was placed in the jugular vein according to Gasthuys et al. ([2017b]). After surgery, the piglets were housed individually to avoid displacement of the catheters. During single housing, a cotton towel was added to the decks and stables to mimic the smell of the other piglets. During the experiments, the stables were enriched with hanging chains, rubber toys and balls of different sizes. The environmental enrichment was rotated daily. […] Afterwards, the snout was closed during 30 s to ensure full dissolution of the lyophilisate. […] The CT-scans were processed using VGStudioMax (Volume Graphics GmbH, Heidelberg, Germany) and the body surface area (BSA) was determined after visualization and selection of the body surface in 3D (UGCT-Department of Physics and Astronomy, Ghent University, Ghent, Belgium). The GFR was determined as the clearance of the exogenous marker exo-iohexol (Gasthuys et al., [2017a]). […] Desmopressin plasma concentrations were determined at Aarhus University Hospital (Aarhus, Denmark) using a validated radioimmunoassay method as described by Emmeluth et al. […] Subsequently, based on a visual exploration of the plasma concentration-time profiles obtained in the growing piglets, a two-compartmental disposition model and a dual-input were evaluated to describe the absorption of the sublingual desmopressin lyophilisate. […]

- CL/F (in vivo): 6580 mL/min
- Vd/F (in vivo): 131 L
- Cmax (in vivo; po): ~0.25 ng/mL
SMILES: NC(=O)CC[C@@H]1NC(=O)[C@H](Cc2ccccc2)NC(=O)[C@H](Cc2ccc(O)cc2)NC(=O)CCSSC[C@@H](C(=O)N2CCC[C@H]2C(=O)N[C@H](CCCN=C(N)N)C(=O)NCC(N)=O)NC(=O)[C@H](CC(N)=O)NC1=O [desmopressin, 1-desamino-8-D-arginine vasopressin]
- F, absolute oral bioavailability [1]: < 1%
